# Legend:
# [1] = system: CCRF-CEM; assay: Growth inhibition of human CCRF-CEM cells at 10 uM after 48 hrs by SRB assay; type: functional; conditions: read-out: GI
# [2] = Growth inhibition of human HL-60(TB) cells at 10 uM after 48 hrs by SRB assay; type: functional; conditions: HL-60, 48 h, read-out: GI
# [3] = Growth inhibition of human MOLT4 cells at 10 uM after 48 hrs by SRB assay; type: functional; conditions: MOLT-4, 48 h, read-out: GI
# [4] = Growth inhibition of human RPMI8226 cells at 10 uM after 48 hrs by SRB assay; type: functional; conditions: RPMI-8226, 48 h, read-out: GI
# [5] = system: A549; assay: Growth inhibition of human A549/ATCC cells at 10 uM after 48 hrs by SRB assay; type: functional; conditions: A549, 48 h, read-out: GI
# [6] = Growth inhibition of human SW620 cells at 10 uM after 48 hrs by SRB assay; type: functional; conditions: SW-620, 48 h, read-out: GI
# [7] = Growth inhibition of human SF268 cells at 10 uM after 48 hrs by SRB assay; type: functional; conditions: SF-268, 48 h, read-out: GI
# [8] = Growth inhibition of human SF295 cells at 10 uM after 48 hrs by SRB assay; type: functional; conditions: SF-295, 48 h, read-out: GI
# [9] = Growth inhibition of human SNB19 cells at 10 uM after 48 hrs by SRB assay; type: functional; conditions: SNB-19, 48 h, read-out: GI
# [10] = Growth inhibition of human SNB75 cells at 10 uM after 48 hrs by SRB assay; type: functional; conditions: SNB-75, 48 h, read-out: GI
# [11] = system: MDA-MB-435; assay: Growth inhibition of human MDA-MB-435 cells at 10 uM after 48 hrs by SRB assay; type: functional; conditions: MDA-MB-435, 48 h, read-out: GI
# [12] = system: SK-MEL-2; assay: Growth inhibition of human SK-MEL-2 cells at 10 uM after 48 hrs by SRB assay; type: functional; conditions: SK-MEL-2, 48 h, read-out: GI
# [13] = Growth inhibition of human UACC257 cells at 10 uM after 48 hrs by SRB assay; type: functional; conditions: UACC-257, 48 h, read-out: GI
# [14] = Growth inhibition of human OVCAR8 cells at 10 uM after 48 hrs by SRB assay; type: functional; conditions: OVCAR-8, 48 h, read-out: GI
# [15] = Growth inhibition of human NCI-ADR-RES cells at 10 uM after 48 hrs by SRB assay; type: functional; conditions: read-out: GI
# [16] = system: MDA-MB-231; assay: Growth inhibition of human MDA-MB-231 cells at 10 uM after 48 hrs by SRB assay; type: functional; conditions: MDA-MB-231, 48 h, read-out: GI
# [17] = Growth inhibition of human BT549 cells at 10 uM after 48 hrs by SRB assay; type: functional; conditions: BT-549, 48 h, read-out: GI
# [18] = system: CCRF-CEM; assay: Growth inhibition of human CCRF-CEM cells after 48 hrs by SRB assay; type: functional
# [19] = Growth inhibition of human HL-60(TB) cells after 48 hrs by SRB assay; type: functional; conditions: HL-60, 48 h
# [20] = Growth inhibition of human HOP92 cells after 48 hrs by SRB assay; type: functional; conditions: HOP-92, 48 h; for CC50: read-out: LC50 (the source's name)
# [21] = system: NCI-H23; assay: Growth inhibition of human NCI-H23 cells after 48 hrs by SRB assay; type: functional; conditions: NCI-H23, 48 h; for CC50: read-out: LC50 (the source's name)
# [22] = Growth inhibition of human COLO205 cells after 48 hrs by SRB assay; type: functional; conditions: COLO 205, 48 h
# [23] = Growth inhibition of human HCT116 cells after 48 hrs by SRB assay; type: functional; conditions: HCT-116, 48 h; for CC50: read-out: LC50 (the source's name)
# [24] = system: HT-29; assay: Growth inhibition of human HT-29 cells after 48 hrs by SRB assay; type: functional; conditions: HT-29, 48 h; for CC50: read-out: LC50 (the source's name)
# [25] = Growth inhibition of human LOXIMVI cells after 48 hrs by SRB assay; type: functional; conditions: LOX IMVI
# [26] = system: M14; assay: Growth inhibition of human M14 cells after 48 hrs by SRB assay; type: functional; conditions: M14, 48 h; for CC50: read-out: LC50 (the source's name)
# [27] = system: SK-MEL-2; assay: Growth inhibition of human SK-MEL-2 cells after 48 hrs by SRB assay; type: functional; conditions: SK-MEL-2, 48 h
# [28] = system: SK-MEL-5; assay: Growth inhibition of human SK-MEL-5 cells after 48 hrs by SRB assay; type: functional; conditions: SK-MEL-5, 48 h; for CC50: read-out: LC50 (the source's name)
# [29] = Growth inhibition of human UACC257 cells after 48 hrs by SRB assay; type: functional; conditions: UACC-257, 48 h; for CC50: read-out: LC50 (the source's name)
# [30] = Growth inhibition of human NCI-ADR-RES cells after 48 hrs by SRB assay; type: functional
# [31] = Growth inhibition of human SKOV3 cells after 48 hrs by SRB assay; type: functional; conditions: SK-OV-3, 48 h
# [32] = system: A498; assay: Growth inhibition of human A498 cells after 48 hrs by SRB assay; type: functional; conditions: A498, 48 h; for CC50: read-out: LC50 (the source's name)
# [33] = Growth inhibition of human TK10 cells after 48 hrs by SRB assay; type: functional; conditions: TK-10, 48 h; for CC50: read-out: LC50 (the source's name)
# [34] = Growth inhibition of human BT549 cells after 48 hrs by SRB assay; type: functional; conditions: BT-549, 48 h; for CC50: read-out: LC50 (the source's name)
# [35] = system: MDA-MB-468; assay: Growth inhibition of human MDA-MB-468 cells after 48 hrs by SRB assay; type: functional; conditions: MDA-MB-468, 48 h; for CC50: read-out: LC50 (the source's name)
# [36] = target: Hepatocyte growth factor receptor (Homo sapiens) (UniProt P08581); assay: Inhibition of c-Met (unknown origin) at 10 uM
# Sequence of Hepatocyte growth factor receptor (Homo sapiens) (P08581 whole entry): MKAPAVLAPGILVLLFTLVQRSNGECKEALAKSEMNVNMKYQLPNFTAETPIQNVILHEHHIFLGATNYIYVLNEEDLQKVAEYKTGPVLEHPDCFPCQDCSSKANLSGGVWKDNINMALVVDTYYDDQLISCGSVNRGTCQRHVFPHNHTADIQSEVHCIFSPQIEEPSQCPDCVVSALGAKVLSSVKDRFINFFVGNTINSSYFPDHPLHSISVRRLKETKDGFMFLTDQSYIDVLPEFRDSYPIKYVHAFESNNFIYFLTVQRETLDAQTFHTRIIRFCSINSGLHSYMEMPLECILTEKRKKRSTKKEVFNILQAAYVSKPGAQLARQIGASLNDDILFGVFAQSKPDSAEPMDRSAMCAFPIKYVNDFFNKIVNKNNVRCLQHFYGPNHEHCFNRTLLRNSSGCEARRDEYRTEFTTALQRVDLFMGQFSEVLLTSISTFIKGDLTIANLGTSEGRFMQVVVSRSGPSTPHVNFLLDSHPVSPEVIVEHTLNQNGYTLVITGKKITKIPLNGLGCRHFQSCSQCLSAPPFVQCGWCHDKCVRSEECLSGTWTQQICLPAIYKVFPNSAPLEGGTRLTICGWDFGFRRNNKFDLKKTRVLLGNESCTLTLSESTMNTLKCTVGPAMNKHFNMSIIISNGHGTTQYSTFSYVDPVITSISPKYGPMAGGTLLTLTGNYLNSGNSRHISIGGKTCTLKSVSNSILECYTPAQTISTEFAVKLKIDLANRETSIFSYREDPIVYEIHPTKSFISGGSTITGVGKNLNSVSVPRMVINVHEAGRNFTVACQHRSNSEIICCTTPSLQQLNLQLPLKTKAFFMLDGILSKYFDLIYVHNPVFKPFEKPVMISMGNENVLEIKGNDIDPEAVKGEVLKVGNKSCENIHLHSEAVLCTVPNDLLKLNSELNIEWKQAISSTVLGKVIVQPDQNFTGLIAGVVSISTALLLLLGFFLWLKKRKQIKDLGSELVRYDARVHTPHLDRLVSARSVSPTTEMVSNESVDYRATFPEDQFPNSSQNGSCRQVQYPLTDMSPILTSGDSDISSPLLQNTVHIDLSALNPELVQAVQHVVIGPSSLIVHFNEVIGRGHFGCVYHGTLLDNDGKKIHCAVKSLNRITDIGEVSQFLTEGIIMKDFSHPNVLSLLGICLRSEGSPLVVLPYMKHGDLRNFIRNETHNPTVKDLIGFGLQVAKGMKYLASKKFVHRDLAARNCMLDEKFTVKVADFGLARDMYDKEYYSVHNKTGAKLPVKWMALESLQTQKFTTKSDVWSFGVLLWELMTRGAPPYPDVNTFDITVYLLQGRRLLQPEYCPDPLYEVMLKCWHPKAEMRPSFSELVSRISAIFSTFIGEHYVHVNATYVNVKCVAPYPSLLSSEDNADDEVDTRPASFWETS
# [37] = target: Cyclin-dependent kinase 2 (Homo sapiens) (UniProt P24941); assay: Inhibition of CDK-2 (unknown origin) at 10 uM
# [38] = target: Mast/stem cell growth factor receptor Kit (Homo sapiens) (UniProt P10721); assay: Inhibition of c-Kit (unknown origin) at 10 uM
# Sequence of Mast/stem cell growth factor receptor Kit (Homo sapiens) (P10721 whole entry): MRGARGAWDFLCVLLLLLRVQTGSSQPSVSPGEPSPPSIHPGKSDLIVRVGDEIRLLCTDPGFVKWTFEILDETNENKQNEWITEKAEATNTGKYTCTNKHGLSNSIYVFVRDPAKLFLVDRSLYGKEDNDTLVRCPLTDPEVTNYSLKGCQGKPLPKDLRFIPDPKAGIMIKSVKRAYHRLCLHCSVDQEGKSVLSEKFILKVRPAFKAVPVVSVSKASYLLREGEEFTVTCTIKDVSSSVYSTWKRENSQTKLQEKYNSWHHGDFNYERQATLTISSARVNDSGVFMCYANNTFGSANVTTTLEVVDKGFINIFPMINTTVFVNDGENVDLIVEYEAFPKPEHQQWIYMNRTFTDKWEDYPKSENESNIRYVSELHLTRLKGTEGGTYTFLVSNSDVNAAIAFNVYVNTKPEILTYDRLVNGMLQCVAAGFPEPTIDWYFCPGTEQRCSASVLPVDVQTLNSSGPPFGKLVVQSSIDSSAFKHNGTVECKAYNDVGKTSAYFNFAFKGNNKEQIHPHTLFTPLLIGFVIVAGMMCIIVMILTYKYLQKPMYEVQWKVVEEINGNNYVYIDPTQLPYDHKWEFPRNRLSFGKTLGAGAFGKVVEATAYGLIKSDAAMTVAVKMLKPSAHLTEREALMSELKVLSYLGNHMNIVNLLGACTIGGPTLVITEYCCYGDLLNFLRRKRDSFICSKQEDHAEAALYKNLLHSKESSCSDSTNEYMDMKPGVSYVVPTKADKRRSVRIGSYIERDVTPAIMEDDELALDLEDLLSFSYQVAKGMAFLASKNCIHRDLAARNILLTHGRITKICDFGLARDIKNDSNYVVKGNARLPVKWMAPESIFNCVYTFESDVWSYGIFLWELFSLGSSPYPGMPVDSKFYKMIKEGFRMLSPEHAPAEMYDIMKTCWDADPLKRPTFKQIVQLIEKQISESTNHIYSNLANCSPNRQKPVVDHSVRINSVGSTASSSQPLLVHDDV
compound,measurement,setting,value
COc1ccc(Nc2nccc(Nc3ccc4[nH]ncc4c3)n2)cc1,inhibition of growth at 10 µM,[1],102%
same,inhibition of growth at 10 µM,[2],40%
same,inhibition of growth at 10 µM,[3],99%
same,inhibition of growth at 10 µM,[4],97%
same,inhibition of growth at 10 µM,[5],76%
same,inhibition of growth at 10 µM,[6],75%
same,inhibition of growth at 10 µM,[7],53%
same,inhibition of growth at 10 µM,[8],52%
same,inhibition of growth at 10 µM,[9],40%
same,inhibition of growth at 10 µM,[10],34%
same,inhibition of growth at 10 µM,[11],65%
same,inhibition of growth at 10 µM,[12],70%
same,inhibition of growth at 10 µM,[13],54%
same,inhibition of growth at 10 µM,[14],91%
same,inhibition of growth at 10 µM,[15],82%
same,inhibition of growth at 10 µM,[16],51%
same,inhibition of growth at 10 µM,[17],56%
same,GI50,[18],2.61 µM
same,LC50 (concentration for 50% net cell kill),[18],> 100 µM
same,TGI,[18],4.67 µM
same,GI50,[19],2.05 µM
same,LC50,[19],> 100 µM
same,TGI,[19],4.67 µM
same,GI50,[20],3.13 µM
same,TGI,[20],12.9 µM
same,CC50,[20],44.5 µM
same,GI50,[21],2.35 µM
same,TGI,[21],6.27 µM
same,CC50,[21],87.3 µM
same,GI50,[22],2.59 µM
same,LC50,[22],25.4 µM
same,TGI,[22],7.21 µM
same,GI50,[23],2.06 µM
same,TGI,[23],4.91 µM
same,CC50,[23],73.1 µM
same,GI50,[24],2.36 µM
same,TGI,[24],8.33 µM
same,CC50,[24],39.7 µM
same,GI50,[25],1.92 µM
same,LC50,[25],7.8 µM
same,TGI,[25],3.87 µM
same,GI50,[26],2.39 µM
same,TGI,[26],6.15 µM
same,CC50,[26],21.2 µM
same,GI50,[27],2.4 µM
same,LC50,[27],29.8 µM
same,TGI,[27],6.39 µM
same,GI50,[28],2.01 µM
same,TGI,[28],4.75 µM
same,CC50,[28],13.1 µM
same,GI50,[29],5.41 µM
same,TGI,[29],16.9 µM
same,CC50,[29],41.1 µM
same,GI50,[30],2.18 µM
same,LC50,[30],29.4 µM
same,TGI,[30],5.75 µM
same,GI50,[31],7.04 µM
same,LC50,[31],58.8 µM
same,TGI,[31],21.7 µM
same,GI50,[32],4.62 µM
same,TGI,[32],17.2 µM
same,CC50,[32],41.4 µM
same,GI50,[33],2.45 µM
same,TGI,[33],9.55 µM
same,CC50,[33],31 µM
same,GI50,[34],3.22 µM
same,TGI,[34],12.1 µM
same,CC50,[34],34.8 µM
same,GI50,[35],1.7 µM
same,TGI,[35],4.55 µM
same,CC50,[35],20.6 µM
same,inhibition,[36],42%
same,inhibition,[37],71%
same,inhibition,[38],85%
COc1cccc(Nc2nccc(Nc3ccc4[nH]ncc4c3)n2)c1,inhibition of growth at 10 µM,[2],162%
same,inhibition of growth at 10 µM,[3],132%
same,inhibition of growth at 10 µM,[4],140%
same,inhibition of growth at 10 µM,[5],168%
same,inhibition of growth at 10 µM,[6],169%
same,inhibition of growth at 10 µM,[7],74%
same,inhibition of growth at 10 µM,[8],84%
same,inhibition of growth at 10 µM,[9],76%
same,inhibition of growth at 10 µM,[10],70%
same,inhibition of growth at 10 µM,[11],178%
same,inhibition of growth at 10 µM,[12],137%
same,inhibition of growth at 10 µM,[13],89%
same,inhibition of growth at 10 µM,[14],181%
same,inhibition of growth at 10 µM,[15],111%
same,inhibition of growth at 10 µM,[16],85%
same,inhibition of growth at 10 µM,[17],116%
same,GI50,[18],0.9 µM
same,LC50 (concentration for 50% net cell kill),[18],21.7 µM
same,TGI,[18],4.56 µM
same,GI50,[19],1.53 µM
same,LC50,[19],8.29 µM
same,TGI,[19],3.56 µM
same,GI50,[20],1.45 µM
same,TGI,[20],4.14 µM
same,CC50,[20],15.3 µM
same,GI50,[21],1.69 µM
same,TGI,[21],3.83 µM
same,CC50,[21],8.7 µM
same,GI50,[22],1.57 µM
same,LC50,[22],6.76 µM
same,TGI,[22],3.26 µM
same,GI50,[23],1.59 µM
same,TGI,[23],3.23 µM
same,CC50,[23],6.54 µM
same,GI50,[24],1.52 µM
same,TGI,[24],3.45 µM
same,CC50,[24],7.83 µM
same,GI50,[25],1.44 µM
same,LC50,[25],7.07 µM
same,TGI,[25],3.19 µM
same,GI50,[26],1.35 µM
same,TGI,[26],2.81 µM
same,CC50,[26],5.83 µM
same,GI50,[27],1.62 µM
same,LC50,[27],6.59 µM
same,TGI,[27],3.27 µM
same,GI50,[28],1.22 µM
same,TGI,[28],2.47 µM
same,CC50,[28],5.01 µM
same,GI50,[29],2.04 µM
same,TGI,[29],3.73 µM
same,CC50,[29],6.79 µM
same,GI50,[30],1.54 µM
same,LC50,[30],14.8 µM
same,TGI,[30],4.36 µM
same,GI50,[31],2.31 µM
same,LC50,[31],16.4 µM
same,TGI,[31],5.4 µM
same,GI50,[32],1.65 µM
same,TGI,[32],5.3 µM
same,CC50,[32],30.5 µM
same,GI50,[33],1.42 µM
same,TGI,[33],2.82 µM
same,CC50,[33],5.6 µM
same,GI50,[34],1.67 µM
same,TGI,[34],3.71 µM
same,CC50,[34],8.23 µM
same,GI50,[35],1.25 µM
same,TGI,[35],2.77 µM
same,CC50,[35],6.13 µM
same,inhibition,[36],54%
same,inhibition,[37],76%
same,inhibition,[38],80%
Clc1ccc(Nc2nccc(Nc3ccc4[nH]ncc4c3)n2)cc1,inhibition of growth at 10 µM,[1],95%
same,inhibition of growth at 10 µM,[2],48%
same,inhibition of growth at 10 µM,[3],77%
same,inhibition of growth at 10 µM,[4],82%
same,inhibition of growth at 10 µM,[5],50%
same,inhibition of growth at 10 µM,[6],67%
same,inhibition of growth at 10 µM,[7],40%
same,inhibition of growth at 10 µM,[8],29%
same,inhibition of growth at 10 µM,[9],22%
same,inhibition of growth at 10 µM,[10],32%
same,inhibition of growth at 10 µM,[11],44%
same,inhibition of growth at 10 µM,[13],12%
same,inhibition of growth at 10 µM,[14],78%
same,inhibition of growth at 10 µM,[15],61%
same,inhibition of growth at 10 µM,[16],31%
same,inhibition of growth at 10 µM,[17],47%

# Source: ChEMBL document CHEMBL3817755, “Design, synthesis and biological evaluation of indazolepyrimidine based derivatives as anticancer agents with anti-angiogenic and antiproliferative activities” (Medchemcomm, 2016)
